Entries after “also recorded” stand apart in the source; their conditions may differ. Where a SMILES comes first, the peptide text is derived from it. The star is where a group is joined. Cbz = O=C(OCc1ccccc1)*; CH2F = FC*
Tests used:
Mo = conditions: in vitro, prior study; cited from earlier work
[1] = test system: APC surface markers CD80/86; assay: Other APC surface markers (CD80/86 etc.) with caspase inhibitors; format: cell-based, human; conditions: PBMC from healthy controls, SLE flare, SLE remission (FIG. 5B)
Experimental: (§1) PBMC were thawed, washed, and diluted to 1-2×10^6 cells/ml in culture medium consisting of RPMI 1640 with L-glutamine (CellGro), 10% heat-inactivated NB human serum (Valley Biomedical), 1% penicillin/streptomycin (CellGro), and 0.1% beta-mercaptoethanol. Cells were plated in round-bottom 96-well plates (Coming Costar) and incubated at 37° C. in a humidified cell chamber with 5% CO2. Some wells were treated with pan-/poly-caspase inhibitors at the time of plating: 50 uM Q- Val-Asp-(non-o-methylated)—OPh (OPH) or Z- Val-Ala-Asp-(beta-o-methyl)-fluroromethylketone (Z-VAD) (both from R&D Systems), or DMSO as the carrier control (0.5% final concentration).
(§2) At the timepoints indicated, cells were surface-stained using fluorochrome- or biotin-conjugated monoclonal antibodies: anti-CD1c, (Miltenyi), anti-CD3, anti-PD-L1 (eBioscience), anti-CD11b, anti-CD11c, anti-CD14, anti-CD-86, anti-PD-L2 (Pharmingen/BD Biosciences), anti-CD45RO, anti-CD80, anti-CD83, and/or anti-HLA-DR (BioLegend), with isotype-matched, fluorochrome/biotin-labeled irrelevant monoclonal antibodies as controls. All samples were blocked using 0.5% human serum and anti-FeR antibody (Miltenyi) during staining. […] Flow cytometry was performed using a FACSCalibur or LSR II cytometer (Becton Dickinson), and data were analyzed using FlowJo software (Macintosh Version 6.3).

T lymphocytes = assay: Foxp3 expression in T lymphocytes of PBMC cultures treated with OPH; format: cell-based, human; conditions: 50 uM; healthy control and SLE cultures; three days later
Experimental: PBMC were cultured as above and a duplicate well of each sample treated with 50 uM OPH. PD-L1 upregulation on APC was confirmed in these cultures, and an aliquot of each sample was incubated further in order to allow interaction of APC with autologous T cells in culture. Three days later, the cells were fixed and permeabilized, and the T lymphocytes were assayed for intracellular expression of the regulatory T cell protein, Foxp3.

PBMC = PBMC cell death and apoptosis (Annexin V and PI) with caspase inhibitors; format: cell-based, human; conditions: 50 uM; control, SLE flare and SLE remission cultures; one day (FIG. 4B)
Experimental: (§3) In order to determine which caspase (or caspases) is responsible for downmodulation of PD-L1 during active lupus, the effects of specific caspase inhibitors on PD-L1 expression in human APC were tested (Table IV). Control and SLE PBMC were incubated for one day in the presence of the individual caspase inhibitors at doses ranging from 10 uM to 50 uM (R&D Systems), with the appropriate level of DMSO as the carrier control (0.5% final concentration). Treated cells were assayed for cell death and apoptosis using Annexin V and PI (example shown in FIG. 4), as well as stained for cell-surface expression of PD-L1 on APC.
The inhibitors enter living cells and bind irreversibly at the caspase active sites, preventing further proteolytic activity by the enzyme. After incubation with caspase inhibitors, PBMC were gated by forward and side scatter and analyzed for percent cell death and apoptosis using Annexin V and PI (see FIG. 10). […] However, higher doses of some caspase-specific inhibitors (50 uM), did alter PD-L1 levels, both in Mo and mDC (example shown in FIG. 11). Normal PBMC were incubated in medium with or without various caspase inhibitors, and PD-L1 protein levels assessed at day one. […]

PD-L1 on APC = assay: PD-L1 surface expression on APC (Mo, mDC) of PBMC cultured with caspase inhibitors; format: cell-based, human
Experimental: as §3, §1
At the timepoints indicated, cells were surface-stained using fluorochrome- or biotin-conjugated monoclonal antibodies: anti-CD1c, (Miltenyi), anti-CD3, anti-PD-L1 (eBioscience), anti-CD11b, anti-CD11c, anti-CD14, anti-CD-86, anti-PD-L2 (Pharmingen/BD Biosciences), anti-CD45RO, anti-CD80, anti-CD83, and/or anti-HLA-DR (BioLegend), with isotype-matched, fluorochrome/biotin-labeled irrelevant monoclonal antibodies as controls. All samples were blocked using 0.5% human serum and anti-FeR antibody (Miltenyi) during staining. Cells were fixed using 2% paraformaldehyde in PBS after preliminary experiments indicated no effect of cell fixation on expression levels of PD-L1 and other surface markers. To assess apoptosis, some cultures were stained in parallel with Annexin V and propidium iodide (PI) (both from Becton Dickinson) as per the manufacturer's instructions. Flow cytometry was performed using a FACSCalibur or LSR II cytometer (Becton Dickinson), and data were analyzed using FlowJo software (Macintosh Version 6.3).

PD-L2 = PD-L2 expression on APC with caspase inhibitors; format: cell-based, human; conditions: two healthy controls, through four days of culture (FIG. 5D)
Experimental: as §1, §2

leukocytes = conditions: cited from earlier work
human macrophages = conditions: cited from earlier work

For Sc1ncnc2nc[nH]c12 [6-mercaptopurine], the “effect on markers of Mo differentiation and maturation” value (Mo) is given as “no significant effect”.
In the case of CC(C)[C@H](NC(=O)c1ccc2ccccc2n1)C(=O)N[C@@H](CC(=O)O)C(=O)COc1c(F)cccc1F [OPH, Q- Val-Asp-(non-o-methylated)—OPh], the “other APC surface markers” value [1] is reported as “does not increase”, the “level of Foxp3 expression (Foxp3 MFI and number of CD4+ cells expressing Foxp3)” value (T lymphocytes) is reported as “remained unchanged” and the “apoptosis in PBMC” value (PBMC) is reported as “reduces”. For the same molecule, the “PD-L1 expression on the surface of both Mo and mDC” value (PD-L1 on APC; 50 uM, day one) was “increased”, the “PD-L1 expression in Mo compared to untreated” value (PD-L1 on APC; 50 uM, controls, SLE flare, SLE remission (FIG. 4C)) was “significantly increases” and the “PD-L1 on APC from healthy controls” value (PD-L1 on APC; CD80/86+ APC, one day (FIG. 7)) was “upregulated PD-L 1 further; also recorded: increased”. For the same molecule, the “PD-L1 on PBMC” value (PD-L1 on APC; FIG. 5A) was “increases”, the “number of CD14int among PD-L1+ PBMC” value (PD-L1 on APC; FIG. 5A) was “increases” and the “mean percentage of Mo expressing PD-L1” value (PD-L1 on APC; SLE flare, 50 uM, untreated 45%) was 97%. The “mean percentage of mDC expressing PD-L1” value (PD-L1 on APC; all three groups, 50 uM, P<0.013) was “more than doubled”, the “increase of PD-L1 expression in immature mDC” value (PD-L1 on APC; all three groups, 50 uM, p<0.02) was “two- to three-fold” and the “PD-L1 levels in SLE flare APC” value (PD-L1 on APC; one day (FIG. 7)) was “approached those of untreated control cells; also recorded: restored normal levels”. The PD-L2 expression (PD-L2) was “not increased”.
With COC(=O)CC[C@H](NC(=O)[C@H](CC(=O)OC)NC(=O)OCc1ccccc1)C(=O)N[C@H](C(=O)N[C@@H](CC(=O)OC)C(=O)CF)C(C)C [Z-DEVD-fmk] the PD-L1 levels (PD-L1 on APC; normal PBMC, control mDC, day one (FIG. 11)) was “greatly increased”.
For COC(=O)C[C@H](NC(=O)[C@H](C)NC(=O)[C@@H](NC(=O)OCc1ccccc1)C(C)C)C(=O)CF [Z-VAD, Z- Val-Ala-Asp-(beta-o-methyl)-fluroromethylketone] (Cbz-Val-Ala-Asp(OMe)-CH2F), the “reciprocal relationship between caspase activity and Mo PD-L1 expression” value (PD-L1 on APC; all PBMC treated) was “held true” and the PD-L2 expression (PD-L2) was “not increased”.
For CCN(CC)CCCC(C)Nc1ccnc2cc(Cl)ccc12 (stereo not drawn) [chloroquine], the “effect on markers of Mo differentiation and maturation” value (Mo) is listed as “no significant effect”.
For CN(C)CCCN1c2ccccc2Sc2ccc(Cl)cc21 [chlorpromazine], the “caspase activation and apoptosis in leukocytes” value (leukocytes) is given as “activate caspases and trigger apoptosis”.
In the case of COc1c(C)c2c(c(O)c1C/C=C(\C)CCC(=O)OCCN1CCOCC1)C(=O)OC2 [mycophenolate mofetil], the “effect on markers of Mo differentiation and maturation” value (Mo) is given as “no significant effect”.
In the case of “Infliximab: can cause a lupus-like syndrome in susceptible individuals”, the “caspase activation and apoptosis in human macrophages” value (human macrophages) is listed as “promote caspase activation and apoptosis”.

Reference: US11860161B2, “Detection and treatment of autoimmune disorders” (Seattle Children's Hospital, priority 2007, dated 2024)
